Laboratory results from patent US20230167103A1 (Bayer Aktiengesellschaft, priority 2020, published 2023).

target: T1, human DGKζ (Homo sapiens, UniProt Q13574); test: Human DGKζ kinase activity inhibition assay (ADP-Glo); type: biochemical; conditions: example compounds; recombinant full-length human DGKζ, 1,2-dioleoyl-sn-glycerol 7 μM, ATP 55 μM, 20 min at 22° C.; read-out: IC50 values of examples in in vitro human DGKζ kinase activity inhibition assays
T1 construct: made in house; host or cells: Sf9 insect cells, baculovirus
Protocol: Human diacylglycerol kinase zeta (DGKζ) inhibitory activity of compounds of the present invention was quantified employing the human DGKζ kinase activity assay as described in the following paragraphs. In essence, the enzyme activity was measured by quantification of the adenosine-di-phosphate (ADP) generated as a co-product of the enzyme reaction via the “ADP-Glo™ Kinase Assay” kit from the company Promega. This detection system works as follows: In a first step the adenosine-tri-phosphate (ATP) not consumed in the kinase reaction is quantitatively converted to cyclic adenosine-mono-phosphate (cAMP) employing an adenylate cyclase (“ADP-Glo-reagent”), then the adenylate cyclase is stopped and the ADP generated in the kinase reaction is converted to ATP, which subsequently generates in a luciferase-based reaction a glow-luminescence signal (“Kinase Detection Reagent”).
C-terminally FLAG-tagged, recombinant full-length human DGKζ (inhouse expressed in baculovirus infected insect cells, purified using anti-Flag pulldown and size exclusion chromatography) was used as enzyme. As an alternative, commercially available enzyme by Carnabio can be used. As substrate for the kinase, 1,2-dioleoyl-sn-glycerol, reconstituted in octyl-β-D-glucopyranoside micelles, was used. […] Subsequently, 22.55 volumes of a 510 mM solution of octyl-β-D-glucopyranoside (Sigma-Aldrich, Cat. #O8001-10G) in 50 mM MOPS buffer (pH 7.4) were added, and the mixture was sonicated in an ultrasonic bath for 20 s. Then 35 volumes of 50 mM MOPS buffer (pH 7.4) were added to yield a solution of 0.28 mM 1,2 dioleoyl-sn-glycerol and 200 mM octyl-β-D-glucopyranoside, which was aliquoted, flash-frozen in liquid nitrogen, and stored at −20° C. until use.
For the assay 50 nl of a 100-fold concentrated solution of the test compound in dimethyl sulfoxide (DMSO, Sigma) was pipetted into either a white 1536-well or a white low-volume 384-well microtiter plate (both Greiner Bio-One, Frickenhausen, Germany). […] The concentration of DGKζ was adjusted depending of the activity of the enzyme lot and was chosen appropriate to have the assay in the linear range, a typical concentration is about 0.1 nM. The reaction was stopped by the addition of 2.5 μL of “ADP-Glo-reagent” (1 to 1.5 diluted with water) and the resulting mixture was incubated at 22° C. for 1 h to convert the ATP not consumed in the kinase reaction completely to cAMP. Subsequently 2.5 μl of the “kinase detection reagent” (1.2 fold more concentrated than recommended by the producer) were added, the resulting mixture was incubated at 22° C. for 1 h and then the luminescence measured with a suitable measurement instrument (e.g. Viewlux™ from Perkin-Elmer). The amount of emitted light was taken as a measure for the amount of ADP generated and thereby for the activity of the DGKζ.
The data were normalised (enzyme reaction without inhibitor=0% inhibition, all other assay components but no enzyme=100% inhibition).

T1 sequence (Q13574 with tags, fused parts or gaps): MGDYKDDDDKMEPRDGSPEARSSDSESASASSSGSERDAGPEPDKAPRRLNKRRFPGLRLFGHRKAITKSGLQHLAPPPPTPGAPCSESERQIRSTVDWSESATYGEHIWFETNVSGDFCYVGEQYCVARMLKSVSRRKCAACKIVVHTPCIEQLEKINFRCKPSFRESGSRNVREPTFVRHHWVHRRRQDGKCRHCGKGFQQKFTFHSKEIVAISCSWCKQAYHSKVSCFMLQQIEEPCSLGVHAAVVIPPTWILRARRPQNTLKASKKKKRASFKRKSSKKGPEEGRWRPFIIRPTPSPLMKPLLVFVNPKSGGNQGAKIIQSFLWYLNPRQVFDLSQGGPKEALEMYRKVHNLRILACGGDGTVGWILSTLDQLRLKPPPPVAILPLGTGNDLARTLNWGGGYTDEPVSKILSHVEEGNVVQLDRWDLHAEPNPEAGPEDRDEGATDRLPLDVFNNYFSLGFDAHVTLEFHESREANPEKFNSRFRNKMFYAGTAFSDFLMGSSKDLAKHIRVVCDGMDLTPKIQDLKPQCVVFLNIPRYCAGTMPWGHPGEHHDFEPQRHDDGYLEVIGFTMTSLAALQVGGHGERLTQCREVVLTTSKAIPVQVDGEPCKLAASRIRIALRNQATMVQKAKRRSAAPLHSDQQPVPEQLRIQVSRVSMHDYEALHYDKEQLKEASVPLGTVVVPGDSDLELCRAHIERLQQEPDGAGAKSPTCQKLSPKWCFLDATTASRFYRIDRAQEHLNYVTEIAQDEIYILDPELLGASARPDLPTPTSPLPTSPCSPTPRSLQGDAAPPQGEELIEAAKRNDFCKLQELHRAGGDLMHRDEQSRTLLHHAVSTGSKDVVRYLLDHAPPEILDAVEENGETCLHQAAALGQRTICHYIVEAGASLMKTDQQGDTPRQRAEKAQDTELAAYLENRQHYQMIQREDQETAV

Row | Structure (SMILES) | IC50 [nM]
1 | CC(C(N)=O)N(c1ccc(F)c(F)c1)c1nc(N)c(C(=O)c2cc(C(=O)NC3(C)CCC3)no2)s1 (racemic) [Example 44, rac-5-[4-amino-2-(N-(2-amino-1-methyl-2-oxo-ethyl)-3,4-difluoro-anilino)thiazole-5-carbonyl]-N-(1-methylcyclobutyl)isoxazole-3-carboxamide] | 59
2 | CC(C(N)=O)N(c1ccc(F)c(F)c1)c1nc(N)c(C(=O)c2cc(C(=O)NC3CC(F)(F)C3)no2)s1 (racemic) [Example 45, rac-5-[4-amino-2-(N-(2-amino-1-methyl-2-oxo-ethyl)-3,4-difluoro-anilino)thiazole-5-carbonyl]-N-(3,3-difluorocyclobutyl)isoxazole-3-carboxamide] | 53
3 | CC(C(N)=O)N(c1ccc(F)c(F)c1)c1nc(N)c(C(=O)c2cc(C(=O)NC3CCCC3)no2)s1 (racemic) [Example 46, rac-5-[4-amino-2-(N-(2-amino-1-methyl-2-oxo-ethyl)-3,4-difluoro-anilino)thiazole-5-carbonyl]-N-cyclopentyl-isoxazole-3-carboxamide] | 77
4 | CC(C(N)=O)N(c1ccc(F)cc1)c1nc(N)c(C(=O)c2cc(OC(F)F)no2)s1 (racemic) [Example 48, rac-2-(N-[4-amino-5-[3-(difluoromethoxy)isoxazole-5-carbonyl]thiazol-2-yl]-4-fluoro-anilino)propanamide] | 73
5 | CC(C(N)=O)N(c1ccc(F)cc1)c1nc(N)c(C(=O)c2cc(-c3ccccc3)ns2)s1 (racemic) [Example 50, rac-2-(N-[4-amino-5-(3-phenylisothiazole-5-carbonyl)thiazol-2-yl]-4-fluoro-anilino)propanamide] | 409
6 | CC(C(N)=O)N(c1ccc(F)cc1)c1nc(N)c(C(=O)c2nc(-c3ccccc3)no2)s1 (racemic) [Example 51, rac-2-(N-[4-amino-5-(3-phenyl-1,2,4-oxadiazole-5-carbonyl)thiazol-2-yl]-4-fluoro-anilino) propanamide] | 17
7 | CC(C(N)=O)N(c1ccc(F)cc1)c1nc(N)c(C(=O)c2nc(-c3ccccn3)no2)s1 (racemic) [Example 54, rac-2-(N-[4-amino-5-[3-(2-pyridyl)-1,2,4-oxadiazole-5-carbonyl]thiazol-2-yl]-4-fluoro-anilino)propanamide] | 306
8 | CC(C(N)=O)N(c1ccc(F)cc1)c1nc(N)c(C(=O)c2nc(-c3cccc(F)c3)no2)s1 (racemic) [Example 55, rac-2-(N-[4-amino-5-[3-(3-fluorophenyl)-1,2,4-oxadiazole-5-carbonyl]thiazol-2-yl]-4-fluoro-anilino)propanamide] | 17
9 | Cc1cccc(-c2noc(C(=O)c3sc(N(c4ccc(F)cc4)C(C)C(N)=O)nc3N)n2)c1C (racemic) [Example 56, rac-2-(N-[4-amino-5-[3-(2,3-dimethylphenyl)-1,2,4-oxadiazole-5-carbonyl]thiazol-2-yl]-4-fluoro-anilino)propanamide] | 14
10 | CC(C(N)=O)N(c1ccc(F)cc1)c1nc(N)c(C(=O)c2cc(CN(C)C3CCCC3)no2)s1 (racemic) [Example 60, rac-2-(N-[4-amino-5-[3-[[cyclopentyl(methyl)amino]methyl]isoxazole-5-carbonyl]thiazol-2-yl]-4-fluoro-anilino)propanamide] | 58
11 | CC(C(N)=O)N(c1ccc(F)cc1)c1nc(N)c(C(=O)c2cc(CNC3(C)CCCC3)no2)s1 (racemic) [Example 61, rac-2-(Np[4-amino-5-[3-[[(1-methylcyclopentyl)amino]methyl]isoxazole-5-carbonyl]thiazol-2-yl]-4-fluoro-anilino)propanamide] | 98
12 | CC(C(N)=O)N(c1ccc(F)cc1)c1nc(N)c(C(=O)c2cc(CNC3CCCC3)no2)s1 (racemic) [Example 62, rac-2-(N-[4-amino-5-[3-[(cyclopentylamino)methyl]isoxazole-5-carbonyl]thiazol-2-yl]-4-fluoro-anilino)propanamide] | 194
13 | CC(C(N)=O)N(c1ccc(F)cc1)c1nc(N)c(C(=O)c2cc(CN3CCCCC3)no2)s1 (racemic) [Example 63, rac-2-(N-[4-amino-5-[3-(1-piperidylmethyl)isoxazole-5-carbonyl]thiazol-2-yl]-4-fluoro-anilino)propanamide] | 88
14 | CC(C(N)=O)N(c1ccc(F)cc1)c1nc(N)c(C(=O)c2cc(COc3ccc(C#N)cc3)no2)s1 (racemic) [Example 64, rac-2-(N-[4-amino-5-[3-[(4-cyanophenoxy)methyl]isoxazole-5-carbonyl]thiazol-2-yl]-4-fluoro-anilino)propanamide] | 32
15 | CC(C(N)=O)N(c1ccc(F)cc1)c1nc(N)c(C(=O)c2cc(CO)no2)s1 (racemic) [Example 65, rac-2-(N-[4-amino-5-[3-(hydroxymethyl)isoxazole-5-carbonyl]thiazol-2-yl]-4-fluoro-anilino)propanamide] | 751
16 | CC(C(N)=O)N(c1ccc(F)cc1)c1nc(N)c(C(=O)c2cc(COC(=O)Nc3ccccc3)no2)s1 (racemic) [Example 66, rac-[5-[4-amino-2-(N-(2-amino-1-methyl-2-oxo-ethyl)-4-fluoro-anilino)thiazole-5-carbonyl]isoxazol-3-yl]methyl N-phenylcarbamate] | 29

The next lines start with the values.

Row | IC50 [nM] | Structure (SMILES)
17 | 42 | CC(C(N)=O)N(c1ccc(F)cc1)c1nc(N)c(C(=O)c2cc(C3CCCC3)no2)s1 (racemic) [Example 47, rac-2-(N-[4-amino-5-(3-cyclopentylisoxazole-5-carbonyl)thiazol-2-yl]-4-fluoro-anilino)propanamide]
18 | 28 | CC(C)c1noc(C(=O)c2sc(N(c3ccc(F)cc3)C(C)C(N)=O)nc2N)n1 (racemic) [Example 49, rac-2-(N-[4-amino-5-(3-isopropyl-1,2,4-oxadiazole-5-carbonyl)thiazol-2-yl]-4-fluoro-anilino)propanamide]
19 | 412 | Cc1noc(C(=O)c2sc(N(c3ccc(F)cc3)C(C)C(N)=O)nc2N)n1 (racemic) [Example 52, rac-2-(N-[4-amino-5-(3-methyl-1,2,4-oxadiazole-5-carbonyl)thiazol-2-yl]-4-fluoro-anilino)propanamide]
20 | 25 | CC(C(N)=O)N(c1ccc(F)cc1)c1nc(N)c(C(=O)c2nc(C(C)(C)C)no2)s1 (racemic) [Example 53, rac-2-(N-[4-amino-5-(3-tert-butyl-1,2,4-oxadiazole-5-carbonyl)thiazol-2-yl]-4-fluoro-anilino)propanamide]
21 | 32 | CC(C(N)=O)N(c1ccc(F)cc1)c1nc(N)c(C(=O)c2nc(C3CC3)no2)s1 (racemic) [Example 57, rac-2-(N-[4-amino-5-(3-cyclopropyl-1,2,4-oxadiazole-5-carbonyl)thiazol-2-yl]-4-fluoro-anilino)propanamide]
22 | 325 | CC(C(N)=O)N(c1ccc(F)cc1)c1nc(N)c(C(=O)c2nc(-c3cnn(C)c3)no2)s1 (racemic) [Example 58, rac-2-(N-[4-amino-5-[3-(1-methylpyrazol-4-yl)-1,2,4-oxadiazole-5-carbonyl]thiazol-2-yl]-4-fluoro-anilino)propanamide]
23 | 12 | CC(C(N)=O)N(c1ccc(F)cc1)c1nc(N)c(C(=O)c2nc(C3CCCC3)no2)s1 (racemic) [Example 59, rac-2-(N-[4-amino-5-(3-cyclopentyl-1,2,4-oxadiazole-5-carbonyl)thiazol-2-yl]-4-fluoro-anilino)propanamide]
